In patent US9320718B2, “Multilayer coating form of orally administered pharmaceutical composition containing omega-3 fatty acid or alkyl ester thereof and statin based drug” (KUHNIL PHARM. CO., LTD., priority 2012, dated 2016):

Key:
Type in all cases: physicochemical
[1] = Compatibility of atorvastatin and coating material: related compounds on storage under severe conditions (HPLC); conditions: atorvastatin 0.5 mg with coating material 2.5 mg, vacuum-dried, stored at about 60° C., relative humidity about 85%
Experimental: (§1) To form an atorvastatin-containing drug-coating layer, compatibility of atorvastatin with various coating materials (coating agents and surfactants) were evaluated. About 2.5 mg of each coating material as shown in Table 2 was dissolved in 5 mL of a 75% aqueous ethanol solution, and about 0.5 mg of atorvastatin was added thereto and then completely dissolved. About 0.5 mg of atorvastatin was completely dissolved in 5 mL of a 75% aqueous ethanol solution as a control group for the compatibility evaluation. Each of the resulting solutions was vacuum-dried at about 50° C. for about 24 hours to completely remove the solvent, thereby preparing test samples. While each test temple was stored under severe conditions (at a temperature of about 60° C. and a relative humidity of about 85%), a degree of generation of related compounds with time was observed. The related compounds were analyzed by HPLC in the following manner.
<Atorvastatin Analysis Method>
(§2) Each test sample was dissolved in 25 mL of methanol, followed by a 2-fold dilution with a mobile phase and filtration through a 0.45-um filter, thereby preparing analysis samples.
Mobile phase; acetonitrile: 0.5% (v/v) aqueous formic acid solution=50:50

[2] = Compatibility of pitavastatin and coating material: related compounds on storage under severe conditions (HPLC); conditions: pitavastatin 0.5 mg with coating material 2.5 mg, vacuum-dried, stored at about 60° C., relative humidity about 85%
Experimental: as §1, with “To form a pitavastatin-containing drug-coating layer,” for “To form an atorvastatin-containing drug-coating layer,”, “compatibility of pitavastatin with various” for “compatibility of atorvastatin with various”, “in Table 3 was dissolved” for “in Table 2 was dissolved”, “mg of pitavastatin was added” for “mg of atorvastatin was added”, “mg of pitavastatin alone was completely” for “mg of atorvastatin was completely”, “degree of generated related compounds” for “degree of generation of related compounds”
<Pitavastatin Analysis Method>
as §2
Mobile phase; acetonitrile: 0.1% (v/v) aqueous trifluoroacetic acid (TFA) solution=60:40

[3] = Compatibility of rosuvastatin and coating material: related compounds on storage under severe conditions (HPLC); conditions: rosuvastatin 0.5 mg with coating material 2.5 mg, vacuum-dried, stored at about 60° C., relative humidity about 85%
Experimental: To form a rosuvastatin-containing drug-coating layer, compatibility of rosuvastatin with various coating materials (coating agents and surfactants) were evaluated. About 2.5 mg of each coating material as shown in Table 1 was dissolved in 5 mL of a 75% aqueous ethanol solution, and about 0.5 mg of rosuvastatin was added thereto and then completely dissolved. About 0.5 mg of rosuvastatin alone was completely dissolved in 5 mL of a 75% aqueous ethanol solution as a control group for the compatibility evaluation. Each of the resulting solutions was vacuum-dried at about 50° C. for about 24 hours to completely remove the solvent, thereby preparing a test sample. While each test temple was stored under severe conditions (at a temperature of about 60° C. and a relative humidity of about 85%), a degree of generation of related compounds with time was observed. The related compounds were analyzed by high-performance liquid chromatography (HPLC) in the following manner.
<Rosuvastatin Analysis Method>
The test sample was dissolved in 25 mL of methanol, followed by a 2-fold dilution with a mobile phase and filtration through a 0.45-um filter, thereby preparing an analysis sample.
Mobile phase; Acetonitrile: 0.5% (v/v) aqueous formic acid solution=50:50

Question: Which results are given for `CC(C)c1c(C(=O)Nc2ccccc2)c(-c2ccccc2)c(-c2ccc(F)cc2)n1CC[C@@H](O)C[C@@H](O)CC(=O)O` [Atorvastatin]?
Answer: Related compound (%, 1st week) [1]: 0.3%; Related compound (%, 1st week) ([1]; listed as atorvastatin): About 0.3%; Related compound (%, 3rd week) [1]: 3.3%; Related compound (%, 3rd week) ([1]; listed as atorvastatin): about 3.3%

Question: For `O=C(O)C[C@H](O)C[C@H](O)/C=C/c1c(C2CC2)nc2ccccc2c1-c1ccc(F)cc1` [Pitavastatin], which “Related compound (%, 1st week)” value [2] is on record?
Answer: 0.1%

Question: What about the “Related compound (%, 1st week)” value ([2]; listed as pitavastatin) of the same compound?
Answer: About 0.1%

Question: What about the “Related compound (%, 3rd week)” value [2] of the same compound?
Answer: 0.2%

Question: And the “Related compound (%, 3rd week)” value ([2]; listed as pitavastatin)?
Answer: about 0.2%

Question: Which results are given for `CC(C)c1nc(N(C)S(C)(=O)=O)nc(-c2ccc(F)cc2)c1/C=C/[C@@H](O)C[C@@H](O)CC(=O)O` [Rosuvastatin]?
Answer: Related compound (%, 1st week) [3]: 1.4%; Related compound (%, 1st week) ([3]; listed as rosuvastatin): About 1.4%; Related compound (%, 3rd week) [3]: 5.2%; Related compound (%, 3rd week) ([3]; listed as rosuvastatin): about 5.4%
